Source: patent US20010014444A1, “Gene regulator fusion proteins and methods of using the same for determining resistance of a protein to a drug targeted thereagainst” (priority 1998, published 2001)

Legend:
[1] = tested on: inactive HIV protease (164) [D25E] (pL448.2); test: Blue/white colony color assay, HIV-PR-LacI fusion protein / β-galactosidase reporter two plasmid system; type: cell-based; conditions: E. coli containing pL448.2; Bluogal indicator media with arabinose inducer, supplemented with indinavir at various concentrations; also blue without indinavir
Procedure: Three E. coli strains, each containing a reporter plasmid for expression of β-galactosidase, and a HIV-PR-LacI expression plasmid for expression of a HIV-PR-LacI fusion protein, were tested using the blue/white color assay of the present invention. These strains were designed to be identical except for mutations within the HIV-PR regions, as set forth below:
Plasmid pL446.1 expresses a fusion protein containing HIV-PR and the LacI gene repressor. Expression is mediated by the ARAB promoter/operator and expression is induced by addition of arabinose sugar to the growth medium.
Media plates were prepared by adding to standard Luria Broth Agar, per liter of Luria Broth Agar, 2,000 μl of 100 mg/ml Ampicillin, 800 μl of 34 mg/ml Chloramrphenicol, 1 ml 1M IPTG. Similarly, indicator media was prepared by adding Bluogal (Life Technologies Inc.) to the media, 16.8 ml Bluogal stock (2% in dimethyl formamide) per liter of Luria Broth Agar. […] The E. coli strains were then plated onto the indicator media and allowed to grow for about 16 hours.

[2] = tested on: HIV-PR variants expressing the resistance-conferring mutations V82T or I84V; test: Colony color assay with site directed HIV-PR variants of known genotype; type: cell-based; conditions: plate with indinavir (MK-639) and Bluogal; only colonies with V82T or I84V variants were white; whiter with V82T and I84V than with V82T
Procedure: Site directed mutagensis was used to construct HIV-PR gene variants encoding the mutations 1) [D25E] […] These variant genes were put into fusion protein expression plasmids in the manner set forth in Example 1, and the resulting fusion protein expression plasmids and a β-galactosidase reporter plasmid expression were subcloned into E. coli, which were then plated on indicator media designed to report E. coli having HIV-PR activity as white colonies and E. coli without HIV-PR activity as blue colonies.
In the method of the present invention, β-galactosidase activity is regulated indirectly by activity of the HIV-PR in the fusion protein expression plasmid. All the E. coli cells used were identical and expressed similar HIV-PR-LacI fusion proteins, except that the HIV-PR genotype is different for different colonies.

## CC(C)(C)NC(=O)[C@@H]1CN(Cc2cccnc2)CCN1C[C@@H](O)C[C@@H](Cc1ccccc1)C(=O)N[C@H]1c2ccccc2C[C@H]1O [indinavir]
[1]
  color of E. coli colonies on indicator media: blue
[2]
  color of E. coli colonies on plate with indinavir and color indicator: white
